Several values for one entry are separate records, joined by “and”; a condition that tells them apart may be missing. Equal values may be shown once. Read-outs that look alike come from different tables or passages of the source.
Experiments:
[1] = molecular target: T1, human muscarinic M1 receptor (Homo sapiens, UniProt P11229); test: Alphascreen Surefire phospho-ERK1/2 functional assay, M1; type: cell-based; conditions: for pEC50 M1 / % Emax cf. ACh (M1) / EC50: CHO cells stably expressing human M1; for pEC50 M1 / EC50: agonist 5 min, 37° C.; for % Emax cf. ACh (M1) / Emax: relative to ACh; for EC50: read-out: pEC50 M1 (converted); for Emax: CHO, read-out: % Emax cf. ACh (M1), CHO cells stably expressing human M1
T1 sequence (P11229 1-460): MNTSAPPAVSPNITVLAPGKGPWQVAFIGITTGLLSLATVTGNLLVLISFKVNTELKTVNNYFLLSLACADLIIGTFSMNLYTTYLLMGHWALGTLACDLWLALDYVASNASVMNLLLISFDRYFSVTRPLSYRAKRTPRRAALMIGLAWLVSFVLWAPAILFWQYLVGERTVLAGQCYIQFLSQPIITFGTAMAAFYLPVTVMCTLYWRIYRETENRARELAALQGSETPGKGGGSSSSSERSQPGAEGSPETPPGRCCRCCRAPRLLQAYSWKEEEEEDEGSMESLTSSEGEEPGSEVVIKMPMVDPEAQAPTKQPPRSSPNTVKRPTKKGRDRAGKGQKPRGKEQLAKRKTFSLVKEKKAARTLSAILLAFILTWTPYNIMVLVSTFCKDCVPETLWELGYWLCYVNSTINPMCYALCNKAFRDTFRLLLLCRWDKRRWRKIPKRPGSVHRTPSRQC
Procedure: (§1) ERK1/2 phosphorylation is a downstream consequence of both Gq/11 and Gi/o protein coupled receptor activation, making it highly suitable for the assessment of M1, M3 (Gq/11 coupled) and M2, M4 receptors (Gi/o coupled), rather than using different assay formats for different receptor subtypes. CHO cells stably expressing the human muscarinic M1, M2, M3 or M4 receptor were plated (25K/well) onto 96-well tissue culture plates in MEM-alpha+10% dialysed FBS. Once adhered, cells were serum-starved overnight. Agonist stimulation was performed by the addition of 5 μL agonist to the cells for 5 min (37° C.). Media was removed and 50 μL of lysis buffer added. After 15 min, a 4 μL sample was transferred to 384-well plate and 7 μL of detection mixture added.

[2] = molecular target: T2, human muscarinic M4 receptor (Homo sapiens, UniProt P08173); test: Alphascreen Surefire phospho-ERK1/2 functional assay, M4; type: cell-based; conditions: for pEC50 M4 / % Emax cf. ACh (M4) / EC50: CHO cells stably expressing human M4; for pEC50 M4 / EC50: agonist 5 min, 37° C.; for EC50: read-out: pEC50 M4 (converted); for Emax: CHO
T2 construct: expressed in transfected cells
T2 sequence (P08173 1-479): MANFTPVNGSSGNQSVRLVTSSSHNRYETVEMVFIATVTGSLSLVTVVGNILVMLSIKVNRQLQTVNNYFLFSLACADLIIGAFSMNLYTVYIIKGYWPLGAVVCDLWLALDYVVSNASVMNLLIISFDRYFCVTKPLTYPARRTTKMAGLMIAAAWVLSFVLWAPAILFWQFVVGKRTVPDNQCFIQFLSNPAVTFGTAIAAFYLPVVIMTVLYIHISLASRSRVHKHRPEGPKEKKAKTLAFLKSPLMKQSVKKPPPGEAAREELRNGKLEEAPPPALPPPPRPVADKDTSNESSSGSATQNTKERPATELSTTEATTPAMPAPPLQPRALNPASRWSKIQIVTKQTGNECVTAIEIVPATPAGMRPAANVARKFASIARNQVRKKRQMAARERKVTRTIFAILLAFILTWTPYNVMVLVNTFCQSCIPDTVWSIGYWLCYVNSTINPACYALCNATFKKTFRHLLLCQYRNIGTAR
Procedure: as §1

[3] = read-out: % Emax cf. ACh (M4), CHO cells stably expressing human M4, relative to ACh

## CCOC(=O)N1C2CCC1CC(N1CC3C(CN(CC)C(C)=O)C3C1)C2 (single isomer, unassigned; isomer 2) [7-5 Isomer 2]
[1]
  pEC50 M1: < 4.70
  % Emax cf. ACh (M1): 23%
[2]
  pEC50 M4: 6.13
[2]; relative to ACh
  % Emax cf. ACh (M4): 38%

## CCOC(=O)N1CCC2(CC(N3CC4C(C3)C4OC(C)c3ccccc3)C2)C1 (single isomer, unassigned) [2-28 Isomer 1]
[1]
  EC50: 575 nM
  % Emax cf. ACh (M1): 58%
[2]
  EC50: > 20000 nM
[2]; relative to ACh
  % Emax cf. ACh (M4): 21%

## CCN(CC)C(=O)C1C2CN(C3CC4COCC(C3)N4C(=O)OC)CC21 (single isomer, unassigned; isomer 2) [10-3 Isomer 2]
[1]
  pEC50 M1: 5.75
  % Emax cf. ACh (M1): 81%
[2]
  pEC50 M4: < 4.70
[2]; relative to ACh
  % Emax cf. ACh (M4): 25%

## CCOC(=O)N1CCC2(CC(N3CC4C(C3)C4C(CC)=NOC)C2)C1 (single isomer, unassigned) [2-25 Isomer 2]
[1]
  EC50: 1290 nM
  % Emax cf. ACh (M1): 37%
[2]
  EC50: 437 nM
[2]; [3]
  Emax: 35%

## CCOC(=O)N1C2COCC1CC(N1CC3C(C1)C3C(=O)N(C)CC)C2 (single isomer, unassigned; isomer 1) [10-1 Isomer 1]
[1]
  pEC50 M1: 5.94 and 5.76
  % Emax cf. ACh (M1): 110% and 78%
[2]
  pEC50 M4: < 4.70
[2]; relative to ACh
  % Emax cf. ACh (M4): 24% and 15%

## COC(=O)N1C2COCC1CC(N1CC3C(C1)C3C(=O)N1CCCCC1)C2 (single isomer, unassigned; isomer 2) [10-12 Isomer 2]
[1]
  pEC50 M1: 5.99
  % Emax cf. ACh (M1): 99%
[2]
  pEC50 M4: 4.85
[2]; relative to ACh
  % Emax cf. ACh (M4): 86%

## CCOC(=O)N1C2CCCC1CC(N1CC3C(C1)C3C(=O)N(CC)CC)C2 (single isomer, unassigned; isomer 1) [9-2 Isomer 1]
[1]
  pEC50 M1: 6.56
  % Emax cf. ACh (M1): 102%
[2]
  pEC50 M4: 5.87
[2]; relative to ACh
  % Emax cf. ACh (M4): 41%

## CCN(C(=O)C1C2CN(C3CC4COCC(C3)N4C(=O)OC)CC21)C(C)C (single isomer, unassigned; isomer 1) [10-7 Isomer 1]
[1]
  pEC50 M1: 7.42
  % Emax cf. ACh (M1): 99%
[2]
  pEC50 M4: 6.79
[2]; relative to ACh
  % Emax cf. ACh (M4): 69%

## CCN(CC)C(=O)C1C2CN(C3CC4CCCC(C3)N4C(=O)OC)CC21 (single isomer, unassigned; isomer 1) [9-3 Isomer 1]
[1]
  pEC50 M1: 6.40
  % Emax cf. ACh (M1): 106%
[2]
  pEC50 M4: 6.12
[2]; relative to ACh
  % Emax cf. ACh (M4): 60%

## CCOC(=O)N1C2CCC1CC(N1CC3C(C1)C3C(=O)N(CC)CC)C2 (single isomer, unassigned; isomer 1) [7-3 Isomer 1]
[1]
  pEC50 M1: 6.78
  % Emax cf. ACh (M1): 123%
[2]
  pEC50 M4: 5.58
[2]; relative to ACh
  % Emax cf. ACh (M4): 45%

## CCOC(=O)C1C2CN(C3CC4CCC(C3)N4C(=O)OCC)CC21 (single isomer, unassigned; isomer 2) [7-1 Isomer 2]
[1]
  pEC50 M1: 5.67
  % Emax cf. ACh (M1): 83%
[2]
  pEC50 M4: 5.80
[2]; relative to ACh
  % Emax cf. ACh (M4): 62%

## CCOC(=O)N1C2CCCC1CC(N1CC3C(C1)C3C(=O)N(C)CC)C2 (single isomer, unassigned; isomer 2) [9-1 Isomer 2]
[1]
  pEC50 M1: 6.01
  % Emax cf. ACh (M1): 93%
[2]
  pEC50 M4: < 4.70
[2]; relative to ACh
  % Emax cf. ACh (M4): 24%

## CCOC(=O)N1C2CCC1CC(N1CC3C(C1)C3C(=O)N(C)CC)C2 (single isomer, unassigned; isomer 1) [7-2 Isomer 1]
[1]
  pEC50 M1: 6.11
  % Emax cf. ACh (M1): 116%
[2]
  pEC50 M4: < 4.70
[2]; relative to ACh
  % Emax cf. ACh (M4): 14%

## CCOC(=O)N1CCC2(CC(N3CC4C(C3)C4N(CC)CC(F)(F)F)C2)C1 (mixture of isomers) [2-27 Mixture of isomers]
[1]
  EC50: > 20000 nM
  Emax: 20%
[2]
  EC50: 1480 nM
[2]; [3]
  Emax: 32%

## CCN(C(=O)C1C2CN(C3CC4COCC(C3)N4C(=O)OC)CC21)C(C)C (single isomer, unassigned; isomer 2) [10-7 Isomer 2]
[1]
  pEC50 M1: 6.83
  % Emax cf. ACh (M1): 100%
[2]
  pEC50 M4: 6.23
[2]; relative to ACh
  % Emax cf. ACh (M4): 64%

## CCOC(=O)N1C2COCC1CC(N1CC3C(C1)C3C(=O)N(CC)C1CC1)C2 (single isomer, unassigned; isomer 2) [10-9 Isomer 2]
[1]
  pEC50 M1: 6.57
  % Emax cf. ACh (M1): 105%
[2]
  pEC50 M4: 5.47
[2]; relative to ACh
  % Emax cf. ACh (M4): 38%

## CCOC(=O)N1C2CCC1CC(N1CC3C(C1)C3c1csc(C)n1)C2 (single isomer, unassigned; isomer 2) [7-6 Isomer 2]
[1]
  pEC50 M1: 5.94
  % Emax cf. ACh (M1): 56%
[2]
  pEC50 M4: 6.21
[2]; relative to ACh
  % Emax cf. ACh (M4): 73%

## CCOC(=O)N1C2COCC1CC(N1CC3C(C1)C3C(=O)N(C)C1CC1)C2 (single isomer, unassigned; isomer 2) [10-8 Isomer 2]
[1]
  pEC50 M1: 5.65
  % Emax cf. ACh (M1): 85%
[2]
  pEC50 M4: 5.67
[2]; relative to ACh
  % Emax cf. ACh (M4): 32%

## CCOC(=O)N1C2COCC1CC(N1CC3C(C1)C3C(=O)N(C)C1CC1)C2 (single isomer, unassigned; isomer 1) [10-8 Isomer 1]
[1]
  pEC50 M1: 5.99
  % Emax cf. ACh (M1): 116%
[2]
  pEC50 M4: 4.84
[2]; relative to ACh
  % Emax cf. ACh (M4): 47%

## CC(=O)OCC[N+](C)(C)C [ACh, acetylcholine, reference compound]
[2]; read-out: % Emax cf. ACh (M4)
  Emax: 109%

## CCOC(=O)N1CC2(CC(N3C[C@@H]4[C@H](C3)[C@H]4c3csc(C)n3)C2)C1 [Example 1-4, ethyl 6-[(1R,5S,6r)-6-(2-methyl-1,3-thiazol-4-yl)-3-azabicyclo[3.1.0]hex-3-yl]-2-azaspiro[3.3]heptane-2-carboxylate]
[1]
  EC50: 4570 nM
  Emax: 55%
[2]
  EC50: 617 nM
[2]; [3]
  Emax: 47%

## CCOC(=O)N1CC2(CC(N3C[C@@H]4[C@H](C3)[C@H]4C(=O)N(CC)CC)C2)C1 [Example 1-2, ethyl 6-[(1R,5S,6r)-6-(diethylcarbamoyl)-3-azabicyclo[3.1.0]hex-3-yl]-2-azaspiro[3.3]heptane-2-carboxylate]
[1]
  EC50: 132 nM
  Emax: 110%
[2]
  EC50: 955 nM
[2]; [3]
  Emax: 81%

## COC(=O)N1C2COCC1CC(N1CC3C(C1)C3C(=O)N(C)C(C)C)C2 (single isomer, unassigned; isomer 2) [10-5 Isomer 2]
[1]
  pEC50 M1: 5.66
  % Emax cf. ACh (M1): 101%
[2]
  pEC50 M4: 4.90
[2]; relative to ACh
  % Emax cf. ACh (M4): 90%

## CCOC(=O)N1CCC(N2C[C@@H]3[C@H](C2)[C@H]3C(=O)N(CC)CC)CC1 [Example 4-1]
[1]
  EC50: 234 nM
  Emax: 84%
[2]
  EC50: 708 nM
[2]; [3]
  Emax: 35%

## COC(=O)N1C2COCC1CC(N1CC3C(C1)C3C(=O)N(C)C(C)C)C2 (single isomer, unassigned; isomer 1) [10-5 Isomer 1]
[1]
  pEC50 M1: 6.30
  % Emax cf. ACh (M1): 99%
[2]
  pEC50 M4: 5.91
[2]; relative to ACh
  % Emax cf. ACh (M4): 81%

## CCOC(=O)N1C2CCC1CC(N1CC3C(C1)C3C(=O)N(C)CC)C2 (single isomer, unassigned; isomer 2) [7-2 Isomer 2]
[1]
  pEC50 M1: 6.66
  % Emax cf. ACh (M1): 113%
[2]
  pEC50 M4: 4.96
[2]; relative to ACh
  % Emax cf. ACh (M4): 53%

— patent publication US10329278B2, “Pharmaceutical compounds” (Heptares Therapeutics Limited, priority 2017, dated 2019)
